Test results as given in US12599622B2, “Compounds to modulate intestinal absorption of nutrients” (The Brigham and Women's Hospital, Inc., priority 2013, dated 2026).

Key:
[1] = integrative permeation test: glucose barrier on mucin-coated membrane in Franz cell; settings: paste in simulated stomach acid pH 1.0 on mucin-coated membrane; normalized to membrane without material (0% blocked)
Method: Specifically, a cellulose nitrate membrane (pore size: 0.2 μm, Whatman, Germany) was incubated in a 3% w/v porcine stomach mucin (Sigma-Aldrich, USA) solution in Hank's balanced salt solution (HBSS) and gently shaken for 2 hours at room temperature. The membrane was washed with distilled deionized water (DDW, pH 7) to remove the excess mucin solution. The mucin-coated membranes were used within 1 hour following preparation. To measure the thickness of the mucin layer, the mucin-coated membrane was lyophilized and imaged using scanning electron microscope (SEM) and the thickness of randomly selected positions was examined (average mucin layer thickness: ˜100 μm).
The dry weight was calculated from dry weights of material-attached membranes and mucin-coated membranes. […] The permeation test was performed in triplicate. The glucose concentration was measured using high performance liquid chromatography (HPLC, Agilent, USA) with an analytical C18 column (Zorbax Eclipse XDB-C18, Agilent). The flow rate was 1 ml/minute, the eluent was DDW, and the wavelength of UV detector was 195 nm.
The barrier properties of the resultant particles were measured by adding 0.9 ml of particle dispersion and 0.1 ml of 10× simulated stomach acid.

Sprague-Dawley (SD) rats = assay: Oral Glucose Tolerance Test (OGTT) after pre-gavage; format: in vivo, rat; settings: 15-hour fasted rats, 500 mg/kg 3 times
Method: To evaluate the in vivo effect of ASP-PC on postprandial glucose absorption, Sprague-Dawley (SD) rats were pre-gavaged with the particles and tested using the Oral Glucose Tolerance Test (OGTT) method. […] For shorter fasting time, the rats were fasted for 5 hour (starting time: 7 am the same day of OGTT) and gavaged with saline or ASP-PC (starting time: 12 am the same day, dose: 500 mg/kg rat, 3 times, 1-hour apart for each gavage). Blood was collected from the tail vein to measure blood glucose level using a glucometer (OneTouch UltraSmart, LifeScan Inc., USA). Statistical significance was determined using a paired Student t-test. Results were considered significant when p≤0.05.
ASP-PC particles were gavaged in Sprague-Dawley (SD) rats fasted for 5 hour (FIGS. 11A, 11B, and 11C) or 15 hour (FIGS. 11D, 11E, andllF) (dose: 500 mg/kg rat, 3 times, 1-hour apart for each gavage).

[2] = mechanical stability of pastes (wet and dry weight over time); format: physicochemical
Method: To assess mechanical stability and physical properties of ASP, each 500 mg of ASP prepared from HCl solutions (0.1-0.3N) was added to 1 ml of simulated stomach acid (pH 1.0) in 37° C. At time points including 0, 10, 30, 60, 120 and 300 minutes, supernatant was removed to measure the wet weight. The remaining paste was lyophilized to measure the dry weight.

[3] = dynamic viscosity by rheometer in simulated stomach acid; format: physicochemical; settings: 1% w/v in simulated stomach acid
Method: Dynamic viscosity was measured using a 20-mm plate with 200-μm gaps (shear rate: 0.01-100 l/s in log scale, shear rate of 1 l/s was selected to compare viscosity of materials).

[4] = aluminum release / aluminum content by ICP-AES; format: physicochemical
Method: To confirm the pH dependent release of aluminum from sucralfate and ASP, aluminum-release was measured during ASP paste formation. […] The aluminum content in the supernatants was measured using inductively coupled plasma atomic emission spectroscopy (ICP-AES, ULTIMA-2, Horiba).
To measure additional aluminum release from aluminum-pre-released ASP, formed pastes were washed with DDW, and 500 mg was added to 10 ml of simulated stomach acid. The samples were vortexed for 5 minutes and incubated for 2 hours. The aluminum content in the supernatant solutions was measured using ICP-AES.

[5] = followed by excretion via feces; cited from earlier work

- total mass liberated upon exposure to stomach acid [2]: ~10%
- viscosity [3]: very high viscosity
Substance: sucrose octasulfate-aluminum complex [sucralfate]
- blocking of glucose (barrier property to glucose permeation) [1]: 62%
- peak glucose values at all other time points versus saline (Sprague-Dawley (SD) rats): similar
- 5-minutes glucose level following OGTT (Sprague-Dawley (SD) rats; p<0.003 vs saline): 97.8 ± 7.3 mg/dL
- percentage of total aluminum released ([4]; in 0.1N HCl): ~9.4%
- percentage of total aluminum released ([4]; in 0.3N HCl): ~44.8%
- original aluminum content released ([4]; reaction with simulated stomach acid (pH 1.0)): ~9.4%
- duration in the GI tract [5]: 2 to 6 h
